Results as given in patent US20140243415A1, “COMPOUNDS INHIBITING GALECTIN-1 EXPRESSION, CANCER CELL PROLIFERATION, INVASION, AND TUMORIGENESIS” (ONCOETHIX SA, priority 2011, published 2014).

Legend:
[1] = system: COL0205-S and COL0205-R cells; test: Antiproliferative effects, epithelial vs mesenchymal COLO205; type: cell-based, human
Source text: FIG. 2. Epithelial-to-mesenchymal differentiation and OTX-008 sensitivity. A—Correlations between galectin-1 (LGALS1) and vimentin, E-cadherin (CDH1) and N-cadherin (CDH2) relative mRNA expression. B—Correlations between OTX-008 IC50s and vimentin, E-cadherin (CDH1) and N-cadherin (CDH2) relative mRNA expression. C—Antiproliferative effects of OTX-008 in epithelial COLO205-S and mesenchymal COLO205-R colon cancer cells. D—Antiproliferative effects of OTX-008 in SNAIL-inducible colon cancer cell lines. E—Antiproliferative effects of OTX-008 in shWISP breast cancer cell lines.
Cell survival was determined using the MTT assay (3-[4,5-dimethylthiazol-2-yl]-2,5-diphenyltetrazolium bromide; Sigma, Saint-Quentin Fallavier, France). The conversion of yellow water-soluble tetrazolium MTT into purple insoluble formazan is catalyzed by mitochondrial dehydrogenases and used to estimate the number of viable cells. In brief, cells were seeded in 96-well tissue culture plates at a density of 2×10^3 cells/well. […] After incubation, the supernatant was discarded, insoluble formazan precipitates were dissolved in 0.1 ml of DMSO and the absorbance was measured at 560 nm by use of a microplate reader (Thermo, France). […] IC50's were determined as the halves of maximal inhibitory drug concentration for each cell line. […]

galectin-1 = target: T1, galectin-1 (Homo sapiens, UniProt P09382); test: Immunofluorescence of galectin-1 in SQ20B cells; type: cell-based
T1 construct: Western Blot of galectin-1 on SQ20B cells treated with 3 μM OTX-008 for 24 h, 48 h and 72 h; endogenous in cells; host or cells: SQ20B (ATCC)
T1 sequence (P09382 whole entry): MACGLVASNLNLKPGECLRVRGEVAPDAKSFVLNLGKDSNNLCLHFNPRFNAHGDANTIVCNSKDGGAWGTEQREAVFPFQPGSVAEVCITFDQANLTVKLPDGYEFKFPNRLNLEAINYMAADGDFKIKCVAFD
Method: FIG. 3. Effects of OTX-008 on galectin-1 expression and localization. A—Western Blot of galectin-1 on SQ20B cells treated with 3 μM OTX-008 for 24 h, 48 h and 72 h. B and C—Immunofluorescence of galectin-1 on SQ20B cells treated with 3 μM OTX-008 for 24 and 48 h. B—OTX-008 treatment decreases galectin-1 immunostaining in SQ20B cells. C—Galectin-1 translocates into the nucleus after OTX-008 exposure. D—Western Blot of p-AKTser473, AKT, p-S6, p-ERK1/2, ERK and p-PKCα in SQ20B cells treated with 3 μM OTX-008 for 10 min, 1 h, 2 h, 5 h and 24 h.
The cells were grown on cover slips at 37° C. overnight. The growth media was then removed; the cells were washed with PBS and fixed in 4% of paraformaldhyde for 15 min and permeabilized with PBS/tritonX100 (1:500) then washed again with PBS. Incubation with primary antibodies was performed at 4° C. overnight (galectin-1, 1:100; Abcam, Cambridge, Mass., USA), followed by the incubation with the secondary antibodies (anti-mouse, 1:100; Cell Signaling, Saint Quentin Yvelines, France) for 1 h at room temperature in the dark. The nuclei were stained with Dapi 1:10000 (Santa Cruz Biotechnology, Santa Cruz, Calif., USA). The images were captured and analyzed with a Zeiss observer Z1 microscope. Images quantification was performed using Histolab Software (Microvision, France) subtracting the background. Magnification ×20 and ×40.

GAL1 mRNA = test: Real-time RT-PCR of GAL1 mRNA; type: cell-based, human; details: OTX-008 exposed cancer cells
Source text: The theoretical and practical aspects of real-time quantitative RT-PCR using the ABI Prism 7900 Sequence Detection System (Perkin-Elmer Applied Biosystems, Foster City, Calif., USA) have been described in detail elsewhere Results were expressed as n-fold differences in target gene expression relative to the TBP gene (an endogenous RNA control) and relative to a calibrator (1× sample), consisting of the cell line sample from our tested series that contained the smallest amount of target gene mRNA. Experiments were performed in duplicate.

CN(C)CCNC(=O)COc1c2cccc1Cc1cccc(c1OCC(=O)NCCN(C)C)Cc1cccc(c1OCC(=O)NCCN(C)C)Cc1cccc(c1OCC(=O)NCCN(C)C)C2 [OTX-008]
activity in epithelial vs mesenchymal cells [1]: markedly more active in COL0205-S cells than in COL0205-R cells | galectin-1 localization (galectin-1; 3 μM OTX-008): translocates from the cytoplasm to the nucleus | galectin-1 expression in the cytoplasm (immunofluorescence) (galectin-1; 3 μM OTX-008, 24 and 48 h): decrease galectin-1 expression | GAL1 mRNA expression (GAL1 mRNA): No change
